This is an account of results in US9833455B2, “Preparation and methods of use for ortho-aryl 5-membered heteroaryl-carboxamide containing multi-targeted kinase inhibitors” (Spacefill Enterprises LLC, priority 2011, dated 2017).

The target in one assay is KDR (Homo sapiens, UniProt P35968). As to the kind of experiment: Nanosyn kinase profiling, % inhibition. The note with it: panel of 230 kinases. In kind it is biochemical. Here is the method: (§1) “Inhibiting kinase activity” means to decrease the production of an phosphor-peptide by a particular kinase that can be separated by analytical techniques. For example, a comprehensive platform of kinase, protease, phosphatase and epigenetic assays that utilizes cutting-edge microfluidics and informatics tools to provide accurate and rapid results. Profiling data in this application were determined using these techniques at Nanosyn Inc. IC50 data were provided by Reaction Biology Inc using a P33 radiolabeled kinase assay.
(§2) A total of 15 new inhibitors were designed, prepared, and evaluated against a panel of 29 selected kinases in order to explore the applicability, SAR trends, and the tunability of this scaffold that could be imposed but this unique geometry, Table 21. Inhibitors I-1 to 1-12 all retained the 2-CF3-5-(4-F-phenyl) imidazole-4-carboxamide scaffold previously described (Deitrich, 2010), but explored different Hinge-Gatekeeper Motifs (HGM).
(§3) More modest activity for Aurora-A, FLT-1/4, KDR, KIT, PDGFRs was accompanied by better activity for B-Raf mutant and wild-type forms, Modest inhibition of MEK-1, BTK, c-Met, RET, and RON was also observed. […] Moreover, the observed inhibition of MEK-1 with 1-12 and TYK2 with I-6 represents additional activities against kinases for which no type-II inhibitors have been reported to date. […] To further evaluate the scope of inhibition, I-6 was evaluated against a larger panel of 230 kinases, Table-22.

A further assay deals with RON (Homo sapiens, UniProt Q04912). Nature of the assay: Nanosyn kinase profiling, % inhibition. In kind it is biochemical. The note with it: panel of 230 kinases. The method, then: as §1, §2, §3
A further assay has as its target FLT4 (Homo sapiens, UniProt P35916). As to the kind of experiment: Nanosyn kinase profiling, % inhibition. It is filed as biochemical. To be noted: panel of 230 kinases. Here is the method: as §1, §2, §3
For a further assay, the target named is T1, DDR2 (Homo sapiens, UniProt Q16832).
T1 sequence (Q16832 22-855): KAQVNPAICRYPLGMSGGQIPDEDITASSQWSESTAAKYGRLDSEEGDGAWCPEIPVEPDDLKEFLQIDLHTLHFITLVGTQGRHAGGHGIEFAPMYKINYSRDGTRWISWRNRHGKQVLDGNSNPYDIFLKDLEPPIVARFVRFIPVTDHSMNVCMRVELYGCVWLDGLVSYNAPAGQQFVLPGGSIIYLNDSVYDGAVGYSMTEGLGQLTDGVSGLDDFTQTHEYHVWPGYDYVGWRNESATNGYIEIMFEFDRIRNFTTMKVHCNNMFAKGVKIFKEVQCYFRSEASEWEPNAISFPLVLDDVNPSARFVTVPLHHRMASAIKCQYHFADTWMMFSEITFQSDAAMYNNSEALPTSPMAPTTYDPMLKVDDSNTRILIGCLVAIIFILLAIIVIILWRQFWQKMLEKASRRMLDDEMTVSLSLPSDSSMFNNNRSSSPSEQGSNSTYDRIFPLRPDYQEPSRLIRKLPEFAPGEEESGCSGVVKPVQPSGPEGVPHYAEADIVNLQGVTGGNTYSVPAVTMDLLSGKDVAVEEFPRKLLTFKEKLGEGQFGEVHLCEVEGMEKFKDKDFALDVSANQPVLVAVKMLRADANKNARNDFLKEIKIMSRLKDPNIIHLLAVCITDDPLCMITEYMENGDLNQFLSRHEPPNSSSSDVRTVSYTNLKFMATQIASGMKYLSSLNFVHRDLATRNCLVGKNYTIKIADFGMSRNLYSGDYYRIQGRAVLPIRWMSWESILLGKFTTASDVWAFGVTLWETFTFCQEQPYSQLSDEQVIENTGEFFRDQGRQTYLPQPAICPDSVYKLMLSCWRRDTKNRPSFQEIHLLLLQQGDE
Nature of the assay: Nanosyn kinase profiling, % inhibition. In kind it is biochemical. The note with it: panel of 230 kinases. Here is the method: as §1, §2, §3

In a further assay the target is PDGFR-β (Homo sapiens, UniProt P09619). As to the kind of experiment: Nanosyn kinase profiling, % inhibition. It is filed as biochemical. The note with it: panel of 230 kinases. Here is the method:
as §1, §2, §3

Another assay has as its target MET (Homo sapiens, UniProt P08581). As to the kind of experiment: Nanosyn kinase profiling, % inhibition. It is filed as biochemical. The note with it: panel of 230 kinases. Here is the method: as §1, §2, §3
The target of a further assay is TRKC (Homo sapiens, UniProt Q16288). As to the kind of experiment: Nanosyn kinase profiling, % inhibition. It is filed as biochemical. To be noted: panel of 230 kinases. The method, then: as §1, §3
Another assay deals with T2, MKNK1 (Homo sapiens, UniProt Q9BUB5).
T2 construct: literature Ambit Biosciences
Nature of the assay: Nanosyn kinase profiling, % inhibition. It is filed as biochemical. To be noted: panel of 230 kinases. The method, then: as §1, §3

Another assay has as its target TRKB (Homo sapiens, UniProt Q16620). Nature of the assay: Nanosyn kinase profiling, % inhibition. In kind it is biochemical. To be noted: panel of 230 kinases. The method, then:
as §1, §3

A further assay concerns the target LCK (Homo sapiens, UniProt P06239). Nature of the assay: Nanosyn kinase profiling, % inhibition. It is filed as biochemical. The note with it: panel of 230 kinases. The method, then:
as §1, §3

The target in a further assay is ABL-T315I (Homo sapiens, UniProt P00519, T315I). As to the kind of experiment: Nanosyn kinase profiling, % inhibition. In kind it is biochemical. To be noted: panel of 230 kinases. The method, then: as §1, §3
In the next assay the target is SRMS (Homo sapiens, UniProt Q9H3Y6). Nature of the assay: Nanosyn kinase profiling, % inhibition. It is filed as biochemical. The note with it: panel of 230 kinases. Here is the method:
as §1, §3

Another assay concerns the target TRKA (Homo sapiens, UniProt P04629). As to the kind of experiment: Nanosyn kinase profiling, % inhibition. In kind it is biochemical. To be noted: panel of 230 kinases. Here is the method: as §1, §3
A further assay concerns the target SRC (Homo sapiens, UniProt P12931). As to the kind of experiment: Nanosyn kinase profiling, % inhibition. In kind it is biochemical. To be noted: panel of 230 kinases. Here is the method: as §1, §3
A further assay concerns the target EPH-B1 (Homo sapiens, UniProt P54762). As to the kind of experiment: Nanosyn kinase profiling, % inhibition. In kind it is biochemical. The note with it: panel of 230 kinases. The method, then:
as §1, §3

The next assay deals with TYRO3 (Homo sapiens, UniProt Q06418). Nature of the assay: Nanosyn kinase profiling, % inhibition. It is filed as biochemical. The note with it: panel of 230 kinases. Here is the method: as §1, §3
The target of another assay is MAP4K2 (Homo sapiens, UniProt Q12851). As to the kind of experiment: Nanosyn kinase profiling, % inhibition. In kind it is biochemical. The note with it: panel of 230 kinases. Here is the method:
as §1, §3

The target in the next assay is EPH-A8 (Homo sapiens, UniProt P29322). As to the kind of experiment: Nanosyn kinase profiling, % inhibition. The note with it: panel of 230 kinases. In kind it is biochemical. The method, then:
as §1, §3

The target of the next assay is JAK2 (Homo sapiens, UniProt O60674). As to the kind of experiment: Nanosyn kinase profiling, % inhibition. It is filed as biochemical. The note with it: panel of 230 kinases. Here is the method:
as §1, §3

The next assay concerns the target T3, CSF1R (Homo sapiens, UniProt P07333).
T3 construct: literature Ambit Biosciences
The note with it: 1 μM, duplicate, without preincubation; cited from earlier work.

The target of the next assay is T4, VEGFR2 (Homo sapiens, UniProt P35968).
T4 construct: literature Ambit Biosciences
To be noted: 1 μM, duplicate, without preincubation; cited from earlier work.

Another assay addresses T5, ERBB4 (Homo sapiens, UniProt Q15303).
T5 construct: literature Ambit Biosciences
To be noted: 1 μM, duplicate, without preincubation; cited from earlier work.

The target in the next assay is T6, ULK2 (Homo sapiens, UniProt Q8IYT8).
T6 construct: literature Ambit Biosciences
To be noted: 1 μM, duplicate, without preincubation; cited from earlier work.

The target in the next assay is T7, PCTK1 (Homo sapiens, UniProt Q00536).
T7 construct: literature Ambit Biosciences
The note with it: 1 μM, duplicate, without preincubation; cited from earlier work.

A further assay has as its target T8, FGFR3 (Homo sapiens, UniProt P22607).
T8 construct: literature Ambit Biosciences
The note with it: 1 μM, duplicate, without preincubation; cited from earlier work.

T7 sequence (Q00536 whole entry): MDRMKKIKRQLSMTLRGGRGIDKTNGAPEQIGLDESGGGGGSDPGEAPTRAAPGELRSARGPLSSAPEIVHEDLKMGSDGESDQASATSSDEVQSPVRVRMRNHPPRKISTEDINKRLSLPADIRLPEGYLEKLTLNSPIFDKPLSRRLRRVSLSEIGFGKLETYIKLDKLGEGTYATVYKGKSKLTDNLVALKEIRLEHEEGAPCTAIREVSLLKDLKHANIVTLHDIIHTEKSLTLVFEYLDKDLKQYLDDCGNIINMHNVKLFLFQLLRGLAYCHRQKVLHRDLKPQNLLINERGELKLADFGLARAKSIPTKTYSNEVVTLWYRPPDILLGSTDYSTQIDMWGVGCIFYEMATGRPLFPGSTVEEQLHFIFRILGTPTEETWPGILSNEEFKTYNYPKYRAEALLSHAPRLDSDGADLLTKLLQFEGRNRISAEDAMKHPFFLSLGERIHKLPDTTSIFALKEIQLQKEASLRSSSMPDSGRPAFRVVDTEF
T8 sequence (P22607 23-806): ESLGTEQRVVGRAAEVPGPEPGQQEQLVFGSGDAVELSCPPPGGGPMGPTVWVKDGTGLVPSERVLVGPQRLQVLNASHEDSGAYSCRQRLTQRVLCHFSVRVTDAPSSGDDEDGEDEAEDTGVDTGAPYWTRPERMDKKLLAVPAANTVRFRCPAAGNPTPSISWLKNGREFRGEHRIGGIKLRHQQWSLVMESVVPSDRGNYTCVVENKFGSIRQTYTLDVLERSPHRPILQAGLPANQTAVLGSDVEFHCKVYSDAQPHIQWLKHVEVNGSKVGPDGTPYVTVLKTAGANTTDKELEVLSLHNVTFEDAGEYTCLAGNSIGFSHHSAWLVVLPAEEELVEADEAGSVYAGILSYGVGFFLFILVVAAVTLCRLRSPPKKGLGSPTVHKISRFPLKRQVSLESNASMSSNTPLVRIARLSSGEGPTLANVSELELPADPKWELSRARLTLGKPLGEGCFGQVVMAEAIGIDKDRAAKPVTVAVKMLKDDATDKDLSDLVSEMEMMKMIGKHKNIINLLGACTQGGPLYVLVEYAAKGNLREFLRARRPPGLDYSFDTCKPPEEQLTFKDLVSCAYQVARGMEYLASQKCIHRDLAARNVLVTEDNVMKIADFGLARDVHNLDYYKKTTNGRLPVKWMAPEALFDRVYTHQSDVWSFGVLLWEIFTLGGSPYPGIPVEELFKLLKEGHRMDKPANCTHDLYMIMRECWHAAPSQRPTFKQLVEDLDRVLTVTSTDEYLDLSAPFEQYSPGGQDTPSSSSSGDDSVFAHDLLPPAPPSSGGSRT
T5 sequence (Q15303 26-1308): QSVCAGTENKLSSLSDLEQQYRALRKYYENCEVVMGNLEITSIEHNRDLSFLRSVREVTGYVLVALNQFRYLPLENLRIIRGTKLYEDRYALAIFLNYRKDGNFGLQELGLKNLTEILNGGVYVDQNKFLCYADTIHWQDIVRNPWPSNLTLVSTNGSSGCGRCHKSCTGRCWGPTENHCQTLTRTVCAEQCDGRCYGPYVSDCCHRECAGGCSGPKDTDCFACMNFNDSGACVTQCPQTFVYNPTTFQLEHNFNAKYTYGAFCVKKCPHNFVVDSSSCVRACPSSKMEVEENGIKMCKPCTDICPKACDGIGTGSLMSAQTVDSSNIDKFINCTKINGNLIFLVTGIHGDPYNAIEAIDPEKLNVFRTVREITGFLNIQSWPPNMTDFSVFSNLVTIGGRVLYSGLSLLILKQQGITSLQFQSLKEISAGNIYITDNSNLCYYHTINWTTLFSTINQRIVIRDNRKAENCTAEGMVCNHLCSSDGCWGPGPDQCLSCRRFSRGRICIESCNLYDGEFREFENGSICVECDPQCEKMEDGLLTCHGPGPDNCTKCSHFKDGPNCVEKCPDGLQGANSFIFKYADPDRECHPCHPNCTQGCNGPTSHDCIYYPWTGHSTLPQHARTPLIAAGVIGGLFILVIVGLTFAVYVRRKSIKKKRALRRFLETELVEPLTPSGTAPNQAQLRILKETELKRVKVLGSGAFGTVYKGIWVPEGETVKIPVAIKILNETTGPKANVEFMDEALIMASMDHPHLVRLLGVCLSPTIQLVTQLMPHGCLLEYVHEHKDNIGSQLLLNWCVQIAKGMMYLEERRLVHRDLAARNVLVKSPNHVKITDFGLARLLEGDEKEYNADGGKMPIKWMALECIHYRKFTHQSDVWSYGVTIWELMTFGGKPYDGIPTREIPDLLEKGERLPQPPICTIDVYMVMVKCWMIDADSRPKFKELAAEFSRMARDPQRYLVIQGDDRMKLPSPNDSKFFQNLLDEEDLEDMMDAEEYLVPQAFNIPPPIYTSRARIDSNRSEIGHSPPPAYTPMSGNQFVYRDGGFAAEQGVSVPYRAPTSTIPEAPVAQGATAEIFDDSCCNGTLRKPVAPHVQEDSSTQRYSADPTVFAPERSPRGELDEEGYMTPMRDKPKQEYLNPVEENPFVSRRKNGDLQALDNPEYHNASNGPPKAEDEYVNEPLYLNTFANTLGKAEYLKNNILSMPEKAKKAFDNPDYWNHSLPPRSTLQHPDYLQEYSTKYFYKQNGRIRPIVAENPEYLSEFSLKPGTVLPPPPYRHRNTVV
TRKC, sequence (Q16288 32-839): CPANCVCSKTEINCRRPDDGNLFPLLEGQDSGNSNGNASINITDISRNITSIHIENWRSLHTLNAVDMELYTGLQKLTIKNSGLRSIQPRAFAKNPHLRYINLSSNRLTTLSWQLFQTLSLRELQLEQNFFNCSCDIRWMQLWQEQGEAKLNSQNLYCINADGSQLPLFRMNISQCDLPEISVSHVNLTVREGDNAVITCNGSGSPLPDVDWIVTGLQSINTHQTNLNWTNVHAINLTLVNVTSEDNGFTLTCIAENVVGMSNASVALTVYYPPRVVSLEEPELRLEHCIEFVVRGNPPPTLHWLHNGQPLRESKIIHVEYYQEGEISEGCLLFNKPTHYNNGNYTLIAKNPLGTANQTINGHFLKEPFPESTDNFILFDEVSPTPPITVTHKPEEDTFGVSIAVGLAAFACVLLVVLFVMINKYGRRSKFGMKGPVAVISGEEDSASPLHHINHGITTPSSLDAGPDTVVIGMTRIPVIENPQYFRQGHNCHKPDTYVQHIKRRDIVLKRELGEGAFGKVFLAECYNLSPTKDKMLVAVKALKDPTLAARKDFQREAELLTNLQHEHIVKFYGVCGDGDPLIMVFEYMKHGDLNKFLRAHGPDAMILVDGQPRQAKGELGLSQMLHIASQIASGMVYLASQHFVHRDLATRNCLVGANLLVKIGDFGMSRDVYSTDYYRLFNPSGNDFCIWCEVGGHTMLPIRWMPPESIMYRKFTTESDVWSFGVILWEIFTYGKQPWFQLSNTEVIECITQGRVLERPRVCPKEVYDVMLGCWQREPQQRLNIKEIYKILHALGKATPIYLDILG
MET, sequence (P08581 25-1390): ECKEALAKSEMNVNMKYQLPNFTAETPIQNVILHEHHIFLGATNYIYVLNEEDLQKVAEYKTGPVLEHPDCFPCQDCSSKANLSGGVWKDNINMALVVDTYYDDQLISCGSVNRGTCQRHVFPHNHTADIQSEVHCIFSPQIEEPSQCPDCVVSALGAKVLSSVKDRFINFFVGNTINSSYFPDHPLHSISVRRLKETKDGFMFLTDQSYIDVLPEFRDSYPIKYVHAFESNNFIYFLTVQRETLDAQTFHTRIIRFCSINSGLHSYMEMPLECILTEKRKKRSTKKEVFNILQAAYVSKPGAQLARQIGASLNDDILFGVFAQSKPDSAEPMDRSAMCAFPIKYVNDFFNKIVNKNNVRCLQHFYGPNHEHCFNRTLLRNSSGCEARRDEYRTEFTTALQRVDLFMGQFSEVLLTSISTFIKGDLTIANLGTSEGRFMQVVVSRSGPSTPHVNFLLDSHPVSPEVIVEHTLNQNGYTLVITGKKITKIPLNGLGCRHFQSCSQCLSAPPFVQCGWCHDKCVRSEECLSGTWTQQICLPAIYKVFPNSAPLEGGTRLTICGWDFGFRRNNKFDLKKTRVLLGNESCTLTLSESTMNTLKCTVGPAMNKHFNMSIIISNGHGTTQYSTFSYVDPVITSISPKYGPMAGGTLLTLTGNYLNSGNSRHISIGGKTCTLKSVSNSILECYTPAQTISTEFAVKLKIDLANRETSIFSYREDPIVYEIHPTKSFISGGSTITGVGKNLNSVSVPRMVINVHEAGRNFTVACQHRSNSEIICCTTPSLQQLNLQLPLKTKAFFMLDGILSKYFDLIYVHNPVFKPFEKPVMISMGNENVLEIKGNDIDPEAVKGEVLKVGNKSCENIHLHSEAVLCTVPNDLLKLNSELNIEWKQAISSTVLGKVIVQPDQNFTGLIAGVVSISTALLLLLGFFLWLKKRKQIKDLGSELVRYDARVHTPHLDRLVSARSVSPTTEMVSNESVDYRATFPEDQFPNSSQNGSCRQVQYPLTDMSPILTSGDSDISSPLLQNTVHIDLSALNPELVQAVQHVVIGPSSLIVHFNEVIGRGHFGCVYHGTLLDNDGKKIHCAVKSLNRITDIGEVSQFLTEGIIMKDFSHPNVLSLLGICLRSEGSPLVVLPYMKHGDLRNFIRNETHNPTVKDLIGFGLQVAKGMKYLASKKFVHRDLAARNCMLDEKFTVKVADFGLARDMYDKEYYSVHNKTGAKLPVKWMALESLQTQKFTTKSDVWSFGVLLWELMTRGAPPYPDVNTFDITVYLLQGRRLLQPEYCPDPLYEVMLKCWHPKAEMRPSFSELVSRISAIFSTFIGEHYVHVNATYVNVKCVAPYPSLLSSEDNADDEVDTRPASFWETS

For `CNC(=O)c1cc(Oc2ccc(NC(=O)c3nc(C(F)(F)F)[nH]c3-c3ccc(F)cc3)cc2)ccn1` [Inhibitor I-6, 4-(4-{[5-(4-Fluoro-phenyl)-2-trifluoromethyl-3H-imidazole-4-carbonyl]-amino}-phenoxy)-pyridine-2-carboxylic acid methylamide], the inhibition at 5 µM against KDR, against RON, against FLT4, against DDR2, against PDGFR-β and on MET was at least 50% each time. In addition, the inhibition at 5 µM on TRKC, against MKNK1, against TRKB, on LCK, against ABL-T315I and on SRMS was at least 50% each time. Besides, the inhibition at 5 µM against TRKA, against SRC, on EPH-B1, at TYRO3, against MAP4K2 and at EPH-A8 was at least 50% throughout. This molecule showed an inhibition at 5 µM on JAK2 of at least 50%.
In the case of `Cc1ccc(NC(=O)c2[nH]c(C(F)(F)F)nc2-c2ccc(F)cc2)cc1Nc1ccc2ncn(C)c(=O)c2c1` [KIN-035], at CSF1R, the “inhibition of CSF1R” value was “XXX (XXX > 75% @ 1 μM)”. Further, the “inhibition of VEGFR2” value at VEGFR2 is on record as “X (X > 25% @ 1 μM)”. In addition, the “inhibition of ERBB4” value at ERBB4 is “X (X > 25% @ 1 μM)”.
Take `Cc1ccc(-c2nc(C(F)(F)F)[nH]c2C(=O)Nc2ccc(C)c(Nc3ccc4ncn(C)c(=O)c4c3)c2)cc1F` [KIN-038]: the “inhibition of ULK2” value on ULK2 is “X (X > 25% @ 1 μM)”. The “inhibition of PCTK1” value on PCTK1 was “X (X > 25% @ 1 μM)”. Moreover, at FGFR3, the “inhibition of FGFR3” value was “X (X > 25% @ 1 μM)”.

Broadly, the inhibition is the change of the read-out against control, counted positive when it falls. A higher inhibition goes with a strong effect.
